# What was measured:
# [1] = system: T-cell activation; details: literature (ref 22); cited from earlier work
# [2] = system: PAP-specific IFNγ-secreting T cells (PBMC); assay: IFNγ ELISPOT of patient PBMC stimulated with PAP antigen; format: cell-based, human; details: PBMC from 22 patients after vaccine and pembrolizumab; IDO enzyme 5 ug/mL or 1-MDT 2 mM; 48 hours; changes not statistically significant
# Method: ELISPOT for measuring IFNγ release was performed as previously described (21). For these analyses, cryopreserved PBMC were thawed, and cultured with PAP protein antigen (Fitzgerald Industries, Acton, Mass.), media alone, or phytohemaglutinin (PHA). Stimulations were also conducted in the presence of IDO enzyme (5 ug/mL) or 1-MDT (2 mM). After 48 hours, plates were developed and spots enumerated using an automated ELISPOT reader (ImmunoSpot, CTL, Shaker Heights, Ohio).
# IDO activity is associated with modest decrease in vaccine antigen-specific T-cell function.
# [3] = system: IDO activity; assay: Serum kynurenine-to-tryptophan (kyn:trp) ratio as measure of IDO activity in treated mCRPC patients; format: in vivo, human; details: patients with mCRPC
# Method: Tryptophan and kynurenine concentrations were measured directly in serum samples using a clinically validated LC/MS method. All analysis was performed by Worldwide Clinical Trials (Morrisville, N.C.) by personnel blinded to the sample source.
# Patients with prostate cancer treated with an anti-tumor vaccine and/or PD-1 develop increased IDO activity and expression. […] Because IDO is also an IFNγ-regulated gene, we questioned whether prostate cancer immunotherapy similarly elicited increases in IDO expression. We have recently reported the results of a trial in which patients with mCRPC were treated with a DNA vaccine encoding PAP alone for 12 weeks, followed by pembrolizumab over the subsequent 12 weeks, or were treated with both agents for 12 weeks (17). Sera was assessed for kynurenine and tryptophan concentrations at baseline and at 12 and 24 weeks, effectively permitting an analysis of changes in IDO activity following treatment with vaccine alone, pembrolizumab alone, or the combination. […] IFNγ concentration was also directly evaluated in sera samples.
molecule,measurement,setting,value
Cn1cc(C[C@H](N)C(=O)O)c2ccccc21 [1-methyltryptophan],effect on T-cell activation in vitro,[1],enhance T-cell activation in vitro
same,detection of PAP-specific IFNγ-secreting cells by ELISPOT,[2],increased the detection of IFNγ-secreting PAP-specific cells
"IDO enzyme: indoleamine 2,3 dioxygenase enzyme added to the PBMC cultures",detection of PAP-specific IFNγ-secreting cells by ELISPOT,[2],tended to suppress
pembrolizumab,median kyn:trp ratio post-treatment,[3]; after 12 weeks of treatment,0.066
same,median kyn:trp ratio pre-treatment,[3]; before the 12-week treatment period,0.061
